Results published in ChEMBL document CHEMBL5385962, “Beyond inhibition against the PD-1/PD-L1 pathway: development of PD-L1 inhibitors targeting internalization and degradation of PD-L1” (RSC Med Chem, 2024).
Each block holds one compound with its values, some of them ahead of it.

Assays:
[1] = Antitumor activity against humanized mouse MC38-hPD-L1 cells implanted in hPD-1 knockin C57BL/6 mouse assessed as reduction in tumor cell proliferation at 10 mg/kg, ip administered for 7 days starting from day 7 post tumor implantation by flow cytometry analysis relative to control; parameters: scale not given: the % may be the effect or the level left; conditions: time 7 day
[2] = tested on: BGC-823; test: PD-L1 degradation in human PD-L1 […] BGC-823 cells assessed as PD-L1 degradation rate at 10 to 20 uM incubated for 5 days by flow cytometry relative to control; conditions: dose 10-20 µM, time 5 day
[3] = tested on: A-375; test: Antiproliferative activity against human A-375 cells assessed as reduction in cell viability; assay type: functional, cell-based
[4] = tested on: B16-F10; test: Antiproliferative activity against mouse B16-F10 cells assessed as reduction in cell viability; assay type: functional, cell-based
[5] = tested on: MC-38; test: Antitumor activity against mouse MC38 cells xenografted in BALB/c nude mouse assessed as inhibition of tumor growth at 2 mg/kg, po BID administered twice daily for 14 days relative to control; assay type: functional; parameters: scale not given: the % may be the effect or the level left; conditions: time 14 day
[6] = tested on: MC-38; test: Antitumor activity against mouse MC38 cells xenografted in BALB/c nude mouse assessed as inhibition of tumor growth at 20 mg/kg, po BID administered twice daily for 14 days relative to control; assay type: functional; parameters: scale not given: the % may be the effect or the level left; conditions: time 14 day
[7] = tested on: MC-38; test: Antitumor activity against mouse MC38 cells xenografted in BALB/c nude mouse assessed as inhibition of tumor growth at 200 mg/kg, po BID administered twice daily for 14 days relative to control; assay type: functional; parameters: scale not given: the % may be the effect or the level left; conditions: time 14 day
[8] = biological target: Programmed cell death 1 ligand 1 (Mus musculus) (UniProt Q9EP73); test: Induction of PD-L1 degradation in mouse CT26 cells
[9] = biological target: Programmed cell death 1 ligand 1 (Mus musculus) (UniProt Q9EP73); test: Induction of PD-L1 degradation in mouse B16-F10 cells
[10] = biological target: Programmed cell death protein 1/Programmed cell death 1 ligand 1 (Homo sapiens, UniProt Q9NZQ7); test: Inhibition of PD-1/PD-L1 interaction (unknown origin) incubated for 24 hrs by HTRF assay; assay type: protein-complex assay
Sequence of Programmed cell death protein 1/Programmed cell death 1 ligand 1 (Q15116 whole entry): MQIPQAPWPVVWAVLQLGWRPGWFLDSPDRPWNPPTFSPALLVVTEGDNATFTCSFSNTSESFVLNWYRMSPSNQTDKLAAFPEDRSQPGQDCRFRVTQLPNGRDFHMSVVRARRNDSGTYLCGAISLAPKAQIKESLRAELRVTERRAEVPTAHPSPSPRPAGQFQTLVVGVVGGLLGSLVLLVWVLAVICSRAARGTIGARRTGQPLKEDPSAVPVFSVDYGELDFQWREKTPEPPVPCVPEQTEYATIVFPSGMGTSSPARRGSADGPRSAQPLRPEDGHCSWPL
Sequence of Programmed cell death protein 1/Programmed cell death 1 ligand 1 (Q9NZQ7 whole entry): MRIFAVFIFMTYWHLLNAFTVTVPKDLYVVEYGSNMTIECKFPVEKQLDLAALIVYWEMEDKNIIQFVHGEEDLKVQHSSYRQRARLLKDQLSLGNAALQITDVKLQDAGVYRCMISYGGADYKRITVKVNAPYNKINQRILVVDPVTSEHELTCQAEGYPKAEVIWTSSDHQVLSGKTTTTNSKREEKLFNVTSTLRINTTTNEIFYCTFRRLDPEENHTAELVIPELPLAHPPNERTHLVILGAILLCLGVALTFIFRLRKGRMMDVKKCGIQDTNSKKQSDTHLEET

Compound: Cc1c(NC(=O)c2ccc(CNCCO)cn2)cccc1-c1cccc(NC(=O)c2ccc(CNCCO)cn2)c1C
Activity [1]: 60.4%

Compound: Cc1nc(C)c(C(=O)OCc2ccccc2)c(CC(C)(C)C)c1C(=O)OCc1ccccc1
PD-L1 degradation rate [2]: 66.99%

IC50 [3]: 8.07 µM | IC50 [4]: 14 µM
Compound: COc1cc(OCc2cccc(-c3ccccc3)c2C)cc(OC)c1CNCCNC(=O)c1cn(CCOCCOCCOCCNc2cccc3c2C(=O)N(C2CCC(=O)NC2=O)C3=O)nn1 (stereo not given)

Compound: Cc1c(Nc2nccc3cc(CN4CC[C@@H](O)C4)cnc23)cccc1-c1cccc(-c2nc3cc(CN4CC[C@@H](C(=O)O)C4)cc(C#N)c3o2)c1C
Activity [5]: 32% | Activity [6]: 66% | Activity [7]: 69%

Compound: Cc1c(COc2cc(OCc3cccc(C#N)c3)c(CN3C[C@H](O)C[C@@H]3C(=O)O)cc2Cl)cccc1-c1ccc2c(c1)OCCO2
DC50 [8]: 350 nM | DC50 [9]: 390 nM

Compound: Cc1c(NC(=O)c2nc3c(n2C)CCN(C[C@H](C)O)C3)cccc1-c1cccc(NC(=O)c2nc3c(n2C)CCN(C)C3)c1Cl
IC50 [10]: < 1 nM
